We go through two molecules from patent US20250282715A1, “SOLID STATE FORMS OF MIRDAMETINIB AND PROCESS FOR PREPARATION THEREOF” (Assia Chemical Industries Ltd., priority 2022, published 2025).

What all share (type): physicochemical
Series [1] is described as follows: Stability to compression (2 tons, XRPD analysis). As to conditions: pressure of 2 tons for 2 minutes, hydraulic press. The method, then: (§1) A sample, after being powdered in a mortar and pestle, is applied directly on a silicon plate holder. The X-ray powder diffraction pattern was measured with Philips X'Pert PRO X-ray powder diffractometer, equipped with Cu irradiation source=1.54184 Å (Ångström), X'Celerator (2.022° 20) detector. Scanning parameters: angle range: 3-40 deg., step size 0.0167, time per step 37 s, continuous scan.
A sample of Mirdametinib oxalic acid co-crystal Form A was subjected to a pressure of 2 tons for 2 minutes (Atlas® Autopress hydraulic press, set to 2 tons).

Series [2] in a line: Hygroscopicity (water absorption at up to 90% RH). As to conditions: about 25° C.
Series [3] is described as follows: Thermal stability (oven heating, XRPD analysis). As to conditions: heated in an oven at 100° C. for 30 minutes. The method, then:
as §1
Samples of Mirdametinib oxalic acid co-crystal Form A (100 mg) and Form IV were heated in an oven at 100° C. for 30 minutes.

Regarding `O=C(NOC[C@H](O)CO)c1ccc(F)c(F)c1Nc1ccc(I)cc1F.O=C(O)C(=O)O`, the “Stability to compression: XRPD analysis after mechanical stress” value in series [1] is “resistant to amorphization”. For the same molecule, the “Hygroscopicity / water absorption” value in series [2] is given as “little or no water absorption”. The XRPD after heating result in series [3] was “Form A”; in series [3] (listed as Mirdametinib oxalic acid co-crystal Form A) it was “no conversion to other polymorph forms”.

`O=C(NOC[C@H](O)CO)c1ccc(F)c(F)c1Nc1ccc(I)cc1F` [Mirdametinib form IV, N-[(2R)-2,3-dihydroxypropoxyl]-3,4-difluoro-2-[(2-fluoro-4-iodophenyl)amino]benzamide, reference compound]: the XRPD after heating entry in series [3] is on record as “form IV + form I”.
